In patent publication US11331294B2, “Benzoquinone derivative E3330 in combination with chemotherapeutic agents for the treatment of bladder cancer” (Indiana University Research and Technology Corporation, priority 2007, dated 2022):

Tested on: sensory neurons
Experiment: Ex vivo model of sensory neurons in culture (neurotoxicity)
Type: cell-based

Compound: CCC/C(=C\C1=C(OC)C(=O)c2ccccc2C1=O)C(=O)N(CC)CC [APX2009, [(2E)-2-[(3-methoxy-1,4-dioxo-1,4-dihydronaphthalen-2-yl)methylidene]-N,N-diethylpentanamide]]
- neuroprotection against platinum-induced toxicity: neuroprotective against cisplatin and oxaliplatin-induced toxicity of sensory neurons
